Assay: Unspecified tests of activity
Settings: tests not specified

Which activity in tests does the source give for `O=C(O)CC[C@H](NC(=O)Oc1ccc(N(CCI)CCI)cc1)C(=O)O` [Example 33] here?
The activity in tests was “good activity”.

— patent publication US5714148A, “Chemical compounds” (Zeneca Limited, priority 1992, dated 1998)
